# Experimental data as given in patent US20220281860A1, “COMPOUNDS AND METHODS OF TREATING RNA-MEDIATED DISEASES” (Arrakis Therapeutics, Inc., priority 2016, published 2022).
# Tested on: RNA3WJ_0.0.0_5IB_3FAM
# Experiment: Ligand observed NMR binding assay (WaterLOGSY, STD)
# Conditions: 10 μM RNA3WJ_0.0.0_5IB_3FAM +/− 200 compound
# Procedure: Purpose: Test direct binding of compounds for RNA three way junction (3WJ). This ligand observed NMR assay is used to test direct binding of compounds to an RNA target, for example a 38 nt synthetic RNA 3WJ and others as described below. Ligand observed assay was used for hit validation studies of single compounds. Established experiments were eventually used to perform group epitope mapping, described below.
# Sample buffer: 10 mM Cacodylate, pH 7.1; 0.68 g [MW: 137.99 g/mol]; fill up to 500 ml with Millipore H2O.
# Compound Stocks: Tool compounds provided as dry powder were prepared as 50 mM stock solution in 100% d6-DMSO. […]
# Proton 900 pulse is determined and water resonance frequency is adjusted to ensure maximal water suppression. The determined values are transferred to the NMR experiments that will be recorded for the respective sample. […]
# Python scripts are used to process all recorded spectra in the assay setup, screening and deconvolution process.
# Spectra were analyzed for direct binding signals of the compounds. […]
# ARK0000013 was also tested in the NMR binding assay. Test Sample: 10 μM RNA3WJ_0.0.0_5IB_3FAM+/−200 Ark000013. ^1H 1D Watergate & WaterLOGSY spectra recorded of Ark000013 were used as a reference (Note: aromatic signals observed between 7.4-7.9 ppm and due to symmetry of the center triptycene scaffold all 9 protons are magnetically equivalent).
smiles,measurement,value
"CN(CCCN)CCCNC(=O)c1ccc2c(c1)C1c3cc(C(=O)NCCCN(C)CCCN)ccc3C2c2ccc(C(=O)NCCCN(C)CCCN)cc21 [Ark0000013, N^2,N^7,N^15-tris(3-((3-aminopropyl)(methyl)amino)propyl)-9,10-dihydro-9,10-[1,2]benzenoanthracene-2,7,15-tricarboxamide]",STD signals,small signals that were sufficient to qualitatively confirm binding
